Patent US8822430B2 (Gilead Sciences, Inc., priority 2009, dated 2014)

system: HCV 1b RLuc cells (dicistronic genotype 1b Con1 replicon); experiment: Renilla luciferase (RLuc)-based HCV replicon reporter assay; format: cell-based, HCV genotype 1b; settings: Hepatitis C virus, 72 h, HCV 1b RLuc replicon, 72 hours; read-out: Activity (antiviral potency [EC50])
Method in brief: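 HCV 1b RLuc cells carrying a dicistronic genotype 1b Con1 replicon were treated with serially diluted compounds from 10 mM DMSO stocks. After 72 h, cells were lysed and Renilla luciferase activity measured. EC50 was obtained by non-linear regression.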

SMILES | EC50 [nM]
COC(=O)N[C@H](C(=O)N1[C@@H]2CC[C@@H](C2)[C@H]1c1ncc(-c2ccc(-c3ccc(-c4cnc([C@@H]5[C@H]6CC[C@H](C6)N5C(=O)[C@@H](NC(=O)OC)C(C)C)[nH]4)cc3)cc2)[nH]1)C(C)C | 0.01
COC(=O)N[C@H](C(=O)N1CCC[C@H]1c1ncc(-c2ccc(-c3ccc(-c4cnc([C@@H]5CC[C@H]6CN(C(=O)OC)CC(=O)N65)[nH]4)cc3)cc2)[nH]1)C(C)C | 0.0664
COC(=O)N[C@@H](C(=O)N1CCC[C@@H]1c1ncc(-c2ccc3c(c2)S(=O)(=O)c2cc(-c4cnc([C@H]5CCCN5C(=O)[C@H](NC(=O)OC)C(C)C)[nH]4)ccc2-3)[nH]1)C(C)C | 0.0535
COC(=O)N[C@H](C(=O)N1CCC[C@H]1c1ncc(-c2ccc(N3CCC(c4cnc([C@@H]5CCCN5C(=O)[C@@H](NC(=O)OC)C(C)C)[nH]4)CC3)cc2)[nH]1)C(C)C | 0.456
COC(=O)N[C@H](C(=O)N1CCC[C@H]1c1ncc(-c2ccc(Oc3ccc(-c4cnc([C@@H]5CCCN5C(=O)[C@@H](NC(=O)OC)C(C)C)[nH]4)cc3)cc2)[nH]1)C(C)C | > 21.3
COC(=O)N[C@@H](CCS(C)(=O)=O)C(=O)N1C[C@@H](C#N)C[C@H]1c1ncc(-c2ccc(-c3ccc4cc(-c5cnc([C@@H]6CC7(CC7)CN6C(=O)[C@@H](NC(=O)OC)C(C)C)[nH]5)ccc4c3)cc2)[nH]1 | 0.256
COC(=O)N[C@@H](CCS(C)(=O)=O)C(=O)N1CC2(CC2)C[C@H]1c1ncc(-c2ccc(-c3ccc4cc(-c5cnc([C@@H]6C[C@H](C#N)CN6C(=O)[C@@H](NC(=O)OC)C(C)C)[nH]5)ccc4c3)cc2)[nH]1 | 0.0405
COC(=O)N[C@H](C(=O)N1C[C@@H](C#N)C[C@H]1c1ncc(-c2ccc3cc(-c4ccc(-c5cnc([C@@H]6[C@H]7CC[C@H](C7)N6C(=O)[C@@H](NC(=O)OC)C(C)C)[nH]5)cc4)ccc3c2)[nH]1)C(C)C | 0.0097
COC(=O)N[C@H](C(=O)N1CCC[C@H]1c1ncc(-c2ccc3c(c2)COc2cc(-c4ccc5nc([C@@H]6[C@H]7CC[C@H](C7)N6C(=O)[C@@H](NC(=O)OC)C(C)C)[nH]c5c4)ccc2-3)[nH]1)C(C)C | 0.007
COC(=O)N[C@H](C(=O)N1CCC[C@H]1c1ncc(-c2ccc3c(c2)C(=O)c2cc(-c4ccc5nc([C@@H]6[C@H]7CC[C@H](C7)N6C(=O)[C@@H](NC(=O)OC)C(C)C)[nH]c5c4)ccc2-3)[nH]1)C(C)C | 0.006
COC(=O)N[C@@H](CC#N)C(=O)N1[C@@H]2CC[C@@H](C2)[C@H]1c1nc2ccc(-c3ccc4c(c3)C(F)(F)c3cc(-c5cnc([C@@H]6CC7(CC7)CN6C(=O)[C@@H](NC(=O)OC)C(C)C)[nH]5)ccc3-4)cc2[nH]1 | 0.004
COC(=O)N[C@@H](CS(C)(=O)=O)C(=O)N1[C@@H]2CC[C@@H](C2)[C@H]1c1nc2ccc(-c3ccc4c(c3)C(F)(F)c3cc(-c5cnc([C@@H]6CC7(CC7)CN6C(=O)[C@@H](NC(=O)OC)C(C)C)[nH]5)ccc3-4)cc2[nH]1 | 0.005
COC(=O)N[C@H](C(=O)N1[C@@H]2CC[C@@H](C2)[C@H]1c1nc2ccc(-c3ccc4c(c3)C(=O)c3cc(-c5cnc([C@@H]6CC7(CC7)CN6C(=O)[C@H](NC(=O)OC)C(C)C)[nH]5)ccc3-4)cc2[nH]1)C(C)C | 0.005
COC(=O)N[C@H](C(=O)N1CC2(CC2)C[C@H]1c1ncc(-c2ccc3c(c2)C2(CC2)c2cc(-c4ccc5nc([C@@H]6[C@H]7CC[C@H](C7)N6C(=O)[C@@H](NC(=O)OC)C(C)C)[nH]c5c4)ccc2-3)[nH]1)C(C)C | 0.0073
COC(=O)N[C@H](C(=O)N1CC2(CC2)C[C@H]1c1ncc(-c2ccc3c(c2)oc2cc(-c4ccc5nc([C@@H]6[C@H]7CC[C@H](C7)N6C(=O)[C@@H](NC(=O)OC)C(C)C)[nH]c5c4)ccc23)[nH]1)C(C)C | 0.0041
COC(=O)N[C@H](C(=O)N1CCC[C@H]1c1ncc(-c2ccc3c(c2)Nc2ccc(-c4cnc([C@@H]5CCCN5C(=O)[C@@H](NC(=O)OC)C(C)C)[nH]4)cc2S3)[nH]1)C(C)C | 1.72
CON[C@H](C(=O)N1CCC[C@H]1c1ncc(-c2ccc(-c3ccc4cc(-c5cnc([C@@H]6CCCN6C(=O)[C@@H](NC(=O)OC)C(C)C)[nH]5)ccc4c3)cc2)[nH]1)C(C)C | 0.525
COC(=O)N[C@H](C(=O)N1CCC[C@H]1c1ncc(-c2ccc(-c3cc4ccc(-c5cnc([C@@H]6CCCN6C(=O)[C@@H](NC(=O)OC)C(C)C)[nH]5)cc4s3)cc2)[nH]1)C(C)C | 0.0093
COC(=O)N[C@H](C(=O)N1CCC[C@H]1c1nc(-c2ccc3c(c2)C(F)(F)c2cc(-c4cnc([C@@H]5CC6(CC6)CN5C(=O)[C@@H](NC(=O)OC)C(C)C)[nH]4)ccc2-3)c[nH]1)C(C)C | 0.0125
COC(=O)N[C@H](C(=O)N1CC2(CC2)C[C@H]1c1ncc(-c2ccc3c(c2)C(F)(F)c2cc(-c4c[nH]c([C@@H]5CCCN5C(=O)[C@@H](NC(=O)OC)C5CCOCC5)n4)ccc2-3)[nH]1)C(C)C | 0.0614
COC(=O)N[C@@H](CCSC)C(=O)N1CCC[C@H]1c1nc(-c2ccc3c(c2)C(F)(F)c2cc(-c4cnc([C@@H]5CC6(CC6)CN5C(=O)[C@@H](NC(=O)OC)C(C)C)[nH]4)ccc2-3)c[nH]1 | 0.0204

SMILES | EC50 [nM]
COC(=O)N[C@H](C(=O)N1CCC[C@H]1c1ncc(-c2ccc(-c3ccc4c(c3)C(F)(F)c3cc(-c5cnc([C@@H]6CC7(CC7)CN6C(=O)[C@@H](NC(=O)OC)C(C)C)[nH]5)ccc3-4)cc2)[nH]1)C(C)C | 0.0208
COC(=O)N[C@H](C(=O)N1C[C@@H](C#N)C[C@H]1c1ncc(-c2ccc3cc(-c4ccc(-c5cnc([C@@H]6CC7(CC7)CN6C(=O)[C@@H](NC(=O)OC)C(C)C)[nH]5)cc4)ccc3c2)[nH]1)C(C)C | 0.0169
CC[C@H](NC(=O)OC)C(=O)N1C[C@@H](C#N)C[C@H]1c1ncc(-c2ccc3cc(-c4ccc(-c5cnc([C@@H]6CC7(CC7)CN6C(=O)[C@@H](NC(=O)OC)C(C)C)[nH]5)cc4)ccc3c2)[nH]1 | 0.0155
COC(=O)N[C@H](C(=O)N1CCC[C@H]1c1ncc(-c2ccc3cc(-c4ccc(-c5cnc([C@@H]6C[C@H](CN(C)C)CN6C(=O)[C@@H](NC(=O)OC)C(C)C)[nH]5)cc4)ccc3c2)[nH]1)C(C)C | 0.125
COC(=O)N[C@H](C(=O)N1CCC[C@H]1c1ncc(-c2ccc3cc(-c4ccc(-c5cnc([C@@H]6C[C@H](CNS(C)(=O)=O)CN6C(=O)[C@@H](NC(=O)OC)C(C)C)[nH]5)cc4)ccc3c2)[nH]1)C(C)C | 0.12
COC(=O)N[C@H](C(=O)N1CCC[C@H]1c1ncc(-c2ccc3cc(-c4ccc(-c5cnc([C@@H]6C[C@H](CNC(C)=O)CN6C(=O)[C@@H](NC(=O)OC)C(C)C)[nH]5)cc4)ccc3c2)[nH]1)C(C)C | 0.138
COC(=O)N[C@H](C(=O)N1CC2(CC2)C[C@H]1c1ncc(-c2ccc(-c3ccc4cc(-c5cnc([C@@H]6C[C@H](C#N)CN6C(=O)[C@@H](NC(=O)OC)C(C)(C)C)[nH]5)ccc4c3)cc2)[nH]1)C(C)C | 0.0165
COC(=O)N[C@@H](C)C(=O)N1[C@@H]2CC[C@@H](C2)[C@H]1c1ncc(-c2ccc(-c3ccc4cc(-c5cnc([C@@H]6CC7(CC7)CN6C(=O)[C@@H](NC(=O)OC)C(C)C)[nH]5)ccc4c3)cc2)[nH]1 | 0.0156
COCC[C@H](NC(=O)OC)C(=O)N1[C@@H]2CC[C@@H](C2)[C@H]1c1ncc(-c2ccc(-c3ccc4cc(-c5cnc([C@@H]6CC7(CC7)CN6C(=O)[C@@H](NC(=O)OC)C(C)C)[nH]5)ccc4c3)cc2)[nH]1 | 0.0119
CC[C@H](NC(=O)OC)C(=O)N1C[C@@H](C#N)C[C@H]1c1ncc(-c2ccc(-c3ccc4cc(-c5cnc([C@@H]6CC7(CC7)CN6C(=O)[C@@H](NC(=O)OC)C(C)C)[nH]5)ccc4c3)cc2)[nH]1 | 0.0176
COC(=O)N[C@H](C(=O)N1CC2(CC2)C[C@H]1c1ncc(-c2ccc3cc(-c4ccc(-c5cnc([C@@H]6C[C@H](C#N)CN6C(=O)[C@@H](NC(=O)OC)C(C)(C)C)[nH]5)cc4)ccc3c2)[nH]1)C(C)C | 0.0127
COC(=O)N[C@H](C(=O)N1[C@@H]2CC[C@@H](C2)[C@H]1c1ncc(-c2ccc(-c3ccc4cc(-c5cnc([C@@H]6CC7(CC7)CN6C(=O)[C@@H](NC(=O)OC)C6CCOCC6)[nH]5)ccc4c3)cc2)[nH]1)C(C)C | 0.0136
COCC[C@H](NC(=O)OC)C(=O)N1CCS[C@H]1c1ncc(-c2ccc(-c3ccc4cc(-c5cnc([C@@H]6CC7(CC7)CN6C(=O)[C@@H](NC(=O)OC)C(C)C)[nH]5)ccc4c3)cc2)[nH]1 | 0.0402
COC[C@@H]1C[C@@H](c2ncc(-c3ccc(-c4ccc5cc(-c6cnc([C@@H]7CC8(CC8)CN7C(=O)[C@@H](NC(=O)OC)C(C)C)[nH]6)ccc5c4)cc3)[nH]2)N(C(=O)[C@@H](NC(=O)OC)C(C)C)C1 | 0.0092
COC(=O)N[C@H](C(=O)N1CC2(CC2)C[C@H]1c1ncc(-c2ccc3cc(-c4ccc(-c5cnc([C@@H]6SCCN6C(=O)[C@@H](NC(=O)OC)C(C)C)[nH]5)cc4)ccc3c2)[nH]1)C(C)C | 0.0192
CC[C@H](NC(=O)OC)C(=O)N1CC2(CC2)C[C@H]1c1ncc(-c2ccc3cc(-c4ccc(-c5cnc([C@@H]6[C@H]7CC[C@H](C7)N6C(=O)[C@@H](NC(=O)OC)C(C)C)[nH]5)cc4)ccc3c2)[nH]1 | 0.0181
COC(=O)N[C@H](C(=O)N1CC2(CC2)C[C@H]1c1nc(-c2ccc3cc(-c4ccc(-c5cnc([C@@H]6SCCN6C(=O)[C@@H](NC(=O)OC)C6CCOCC6)[nH]5)cc4)ccc3c2)c[nH]1)C(C)C | 0.132
COC(=O)N[C@H](C(=O)N1CC2(CC2)C[C@H]1c1ncc(-c2ccc3cc(-c4ccc(-c5cnc([C@@H]6CC7(CN6C(=O)[C@@H](NC(=O)OC)C(C)C)OCCO7)[nH]5)cc4)ccc3c2)[nH]1)C(C)C | 0.0063
CC[C@H](NC(=O)OC)C(=O)N1[C@@H]2CC[C@@H](C2)[C@H]1c1ncc(-c2ccc(-c3ccc4cc(-c5cnc([C@@H]6CC7(CC7)CN6C(=O)[C@@H](NC(=O)OC)C(C)C)[nH]5)ccc4c3)cc2)[nH]1 | 0.0086
COC(=O)N[C@H](C(=O)N1[C@@H]2CC[C@@H](C2)[C@H]1c1ncc(-c2ccc(-c3ccc4cc(-c5cnc([C@@H]6CC7(CC7)CN6C(=O)[C@@H](NC(=O)OC)C(C)OC)[nH]5)ccc4c3)cc2)[nH]1)C(C)C (some centres unmarked) | 0.0077
